Test results from patent publication US12631644B2, “Biomarker panel targeted to diseases due to multifactorial ontology of glycocalyx disruption” (Arterez, Inc., priority 2019, dated 2026).

Assays:
inflammation and plaque = test: Average disease scores (aortic sinus histology) in high-fat diet mice, Example 1; format: in vivo, mouse; conditions: FIG. 9; per group and time point; gavage 150 μmol/kg
Protocol: For a pilot study, forty-eight 10-week old male C57/Bl6 mice were obtained from Jackson Laboratories. Three mice were raised from 6 weeks on a regular diet and served as controls, and the remaining 45 were raised on a 60% fat diet (D12451, DIO series diet, Opensource Diets). For a bacterial dosage test, sixteen 10-week old male C57/Bl6 mice were divided into four treatment groups and maintained on a normal diet.
3,3′,4,4′-Tetrachlorobiphenyl (PCB-77) was obtained from Neosyn Laboratories. 100 mg of the dry chemical was suspended in 15.22 ml of corn oil to deliver 150 μmol/kg in 0.2 ml per mouse. […]
The hearts were prepared as frozen sections: they were mounted in blocks, and 10 μm-thick sections were cut through the aortic valve, to yield 30 sections per mouse. […] Multiple 10-μm sections at the level of the aortic sinus were analyzed for the presence of Oil Red O lipid staining, plaque size, amount of fibrous tissue, and inflammation. The percentage of the lumen occupied by the first three features was calculated using Image Pro Plus. […] The level of inflammation in each section was scored on the following scale: 0=no inflammatory cells observed, 1=few macrophages with no giant cells, 2=foam cells present, 3=foam cells with cholesterol, 4=foam cells, giant cells, and cholesterol present. […]

TNF-α = biological target: T1, TNF-α (Homo sapiens, UniProt P01375); conditions: humans; 2009 Atherosclerosis 202:296-303; cited from earlier work
T1 construct: host or cells: human subjects (in vivo, endogenous TNF-α)
T1 sequence (P01375 77-233 limits assumed): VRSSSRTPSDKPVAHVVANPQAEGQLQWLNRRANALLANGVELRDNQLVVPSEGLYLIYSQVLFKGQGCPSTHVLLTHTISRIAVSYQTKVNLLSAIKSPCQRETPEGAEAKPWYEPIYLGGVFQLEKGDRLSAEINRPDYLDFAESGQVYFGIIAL

| Compound | risk factor for producing inflammation and plaque (average disease scores) (inflammation and plaque) | shedding of glycocalyx constituents, coagulation activation, vessel function (TNF-α) |
| --- | --- | --- |
| Clc1ccc(-c2ccc(Cl)c(Cl)c2)cc1Cl [PCB77, 3,3′,4,4′-Tetrachlorobiphenyl] | most significant risk factor to producing inflammation and plaque | – |
| etanercept | – | reduces the shedding of glycocalyx constituents, coagulation activation, and functional vessel function |
